Test results taken from PMC8466373, “Plant-Derived and Dietary Hydroxybenzoic Acids—A Comprehensive Study of Structural, Anti-/Pro-Oxidant, Lipophilic, Antimicrobial, and Cytotoxic Activity in MDA-MB-231 and MCF-7 Cell Lines” (Nutrients, 2021).
Converted amounts (≈) assume the structure as drawn. “And” between values parts separate entries of the source, which are not always exact repeats. Identical values can stand only once. Like-named read-outs stand apart in the source and are kept apart here. Marks after values point to notes of the source that are not given here.

Experiments:
[1] = CUPRAC assay (cupric-reducing antioxidant capacity); type: biochemical; conditions: concentration of 50 μM, methanolic solutions
Procedure: CUPRAC assay was carried out according to the method described in [44]. First, […] of CuCl2 (C = 10 mM; in water) was mixed with […] of ammonium acetate (pH 7; in water) and neocuproine (C = 75 mM; in ethanol). […] The samples were mixed and incubated for 60 min at room temperature (23 °C). The absorbance of the samples was measured with a UV–Vis spectrophotometer at λ = 450 nm against a blank (containing 0.5 mL of methanol instead of the sample). […] R^2 = 0.9919).

[2] = Cytotoxicity, neutral red (NR) assay; type: cell-based, human; conditions: human, 48 h treatment, neutral red assay
Procedure: Briefly, MCF-7 cells were cultured in EMEM (Biological Industries, Israel) medium supplemented with 10% fetal calf serum (Gibco). MDA-MB-231 cells were cultured in Leibovitz‘s L15 (Biological Industries, Beit HaEmek, Israel) medium supplemented with 10% fetal calf serum (Gibco). The MCF-7 cells were incubated in a 5% CO2 atmosphere at 37 °C, whereas the MDA-231 cells were incubated in a 100% air atmosphere at 37 °C.
Cytotoxicity evaluation was conducted to assess the impact of hydroxybenzoic acids on the proliferation of MCF-7 and MDA-MB-231 cells, which was measured via neutral red (NR) assay. In brief, cells were seeded in 96-well microplates (TPP, Switzerland) at a density of 2 × 10^4 cells/well in 100 μL of culture medium. At least three independent experiments in six replicate wells were conducted per concentration. Twenty-four hours after cell seeding, cells were treated with increasing concentrations of hydroxybenzoic acids (0.02–5 mM) for forty-eight hours. After treatment, cells were incubated for 3 h at 37 °C with 100 µL of neutral red solution (stock solution of NR) (Sigma-Aldrich), and then 5 mg/mL of PBS was diluted 1:100 in cell culture medium, incubated for 12 h at 37 °C, and centrifuged to remove any undissolved NR powder. […] After 15 min of gentle shaking, optical density was read at 540 nm with an Infinite M200 plate reader spectrophotometer (Tecan, Austria).

DPPH assay = type: biochemical; conditions: methanolic solutions, 60 min of reaction time
Procedure: DPPH assay was measured according to the method described by Rice-Evans. Appropriate volumes of methanolic solutions of the tested hydroxybenzoic acids (C = 30 μM) were mixed with methanol in test tubes to prepare a series of solutions of various concentrations (final volume 1 mL). Then, 2 mL of methanolic solution of DPPH^• (C = 60 μM) was added to each tube; the control contained methanol instead of the sample. The tubes with reaction mixtures were capped, vortexed, and left to stand for 60 min at 23 °C in the dark. The absorbance of the solutions was measured by the use of a Cary 5000 UV–Vis spectrophotometer (Santa Clara, CA, USA) at λ = 516 nm against pure methanol. […] The concentration of the tested hydroxybenzoic acids was plotted against the %I, and the IC50 values (antioxidant concentration that inhibited 50% of DPPH^• radicals) were calculated from the obtained scavenging curves.

[3] = FRAP assay (ferric-reducing antioxidant power); type: biochemical; parameters: key: (-): Negative values were obtained for these acids; conditions: concentration of 50 μM, methanolic solutions
Procedure: FRAP assay was carried out as described in [42]. […] After 8 min of incubation at 23 °C, the absorbance at 595 nm was measured against the blank (containing 0.4 mL of methanol instead of the sample). Ferric-reducing antioxidant activity was expressed as Fe(II) ion equivalents (μM) using the calibration curve obtained for FeSO4 (the standard curve equation: y = 3.4303x − 0.1058; R^2 = 0.9984).

[4] = system: Pseudomonas aeruginosa (PCM 2720); assay: MIC by serial dilution in agar medium; type: cell-based
Procedure: (§1) The following bacterial strains were used in this study: Escherichia coli (PCM 2857), Pseudomonas aeruginosa (PCM 2720), Bacillus subtilis (PCM 2850), Staphylococcus aureus (PCM 2267), Salmonella enteritidis (NCTC 4776), and Candida albicans (PCM 2566-FY). The microbial strains were bought from the Polish Collection of Microorganisms (Wroclaw, Poland) or the American Type Culture Collection. Bacteria (0.1 mL of the reconstituted suspension) were seeded onto sterile Mueller–Hinton agar plates (Biomaxima), to which previously suitable amounts of the tested compounds were added to give the desired concentration.
(§2) The MIC (minimal inhibitory concentration) was determined by serial dilution of the tested compound in an agar medium, to which the appropriate inoculum of microorganisms was then added and incubated. Escherichia coli, Pseudomonas aeruginosa, Staphylococcus aureus, Bacillus subtilis, Salmonella enteritidis, and Candida albicans were grown overnight and then resuspended in physiological saline to an optical density at 600 nm (OD = 600) of 0.60, corresponding to 5.0 × 10^8 CFU/mL. Bacteria (0.1 mL of the reconstituted suspension) were seeded onto sterile Mueller–Hinton agar plates, to which previously suitable amounts of the tested compounds were added to reach the desired concentration. Tested chemicals were dissolved in DMSO solution. Negative controls were agar plates, to which DMSO was added, while positive controls were plates with gentamycin (in the case of bacteria) or flucanozole (in the case of fungi). The plates were incubated at 37 °C for 24 h. The lowest concentration without visible bacterial growth was determined as the MIC.

[5] = system: Escherichia coli (PCM 2857); assay: MIC by serial dilution in agar medium; type: cell-based
Procedure: as §1, §2

[6] = system: Staphylococcus aureus (PCM 2267); assay: MIC by serial dilution in agar medium; type: cell-based
Procedure: as §1, §2

[7] = system: Bacillus subtilis (PCM 2850); assay: MIC by serial dilution in agar medium; type: cell-based
Procedure: as §1, §2

[8] = system: Candida albicans (PCM 2566-FY); assay: MIC by serial dilution in agar medium; type: cell-based
Procedure: as §1, §2

[9] = Pro-oxidant activity, Trolox oxidation assay; type: biochemical; conditions: after 120 min of incubation, concentrations of 35 μM
Procedure: The pro-oxidant activity was expressed as the rate of Trolox oxidation according to the protocol described in [45]. First, a mixture of 0.5 mL of Trolox (C = 0.4 mM; in water) with 0.5 mL of H2O2 (C = 0.2 mM; in water), 0.5 mL of HRP (C = 0.04 μM; in phosphate buffer; pH = 7), 5 μL of the tested compounds (C = 50 μM; in methanol), and […] of distilled water was prepared as the tested sample. […] The control contained methanol instead of the tested substance.

ABTS assay = type: biochemical; conditions: 50 μM, methanolic solutions, 7 min of reaction time
Procedure: ABTS assay was conducted according to the procedure of Re et al.. […] The absorbance of the solutions was measured with a UV–Vis spectrophotometer at 734 nm against methanol (the blank). The ability to scavenge ABTS^•+ cation radicals was expressed as the %I of ABTS^•+ and calculated according to the aforementioned equation.

[10] = read-out: Cytotoxicity (mM) in Cell Line MCF-7, IC50
[11] = read-out: Cytotoxicity (mM) in Cell Line MDA-MB-231, IC50
[12] = MCF-7 cells (breast adenocarcinoma), read-out: Cytotoxicity (mM) in Cell Line MCF-7, IC50
[13] = MDA-MB-231 cells (breast adenocarcinoma), read-out: Cytotoxicity (mM) in Cell Line MDA-MB-231, IC50

SMILES | MIC ([4]; read-out: MIC) | MIC ([5]; read-out: MIC) | MIC ([6]; read-out: MIC) | MIC ([7]; read-out: MIC) | MIC ([8]; read-out: MIC) | CUPRAC assay: Trolox equivalent [1] | IC50 at 48 h [2, 10] | IC50 at 48 h [2, 11] | IC50 (DPPH assay) | FRAP [3] | MIC [4] | MIC [5] | MIC [6] | MIC [7] | MIC [8] | degree of Trolox oxidation [9] | Inhibition of ABTS•+ radicals (%I) (ABTS assay) | IC50 at 48 h [2, 12] | IC50 at 48 h [2, 13]
O=C(O)c1ccc(O)c(O)c1 [3,4-DHB, 3,4-dihydroxybenzoic acid] |  |  |  |  |  | 60.53 µM | > 5 mM | > 5 mM | 5.24 ± 0.95 µM | 44.22 µM Fe^2+ and 44.22 ± 9.38 µM Fe^2+ | 2000 µg/mL (≈ 13 mM) | 2000 µg/mL (≈ 13 mM) | 2000 µg/mL (≈ 13 mM) | 2000 µg/mL (≈ 13 mM) | 2000 µg/mL (≈ 13 mM) | 8.44% | 74.51% |  | 
O=C(O)c1cccc(O)c1O [2,3-DHB, 2,3-Dihydroxybenzoic acid] | 5000 µg/mL (≈ 32.4 mM) | 5000 µg/mL (≈ 32.4 mM) | 5000 µg/mL (≈ 32.4 mM) | 5000 µg/mL (≈ 32.4 mM) | 5000 µg/mL (≈ 32.4 mM) | 60.83 µM |  |  | 5.86 ± 0.64 µM | 173.79 µM Fe^2+ and 173.79 ± 39.06 µM Fe^2+ |  |  |  |  |  |  | 86.40% | > 5 mM | 4.1 mM
O=C(O)c1c(O)cccc1O [2,6-DHB, 2,6-dihydroxybenzoic acid] | 4000 µg/mL (≈ 26 mM) | 3000 µg/mL (≈ 19.5 mM) | 5000 µg/mL (≈ 32.4 mM) | 3000 µg/mL (≈ 19.5 mM) | 3000 µg/mL (≈ 19.5 mM) |  |  |  | 209 ± 0.98 µM | (-) * |  |  |  |  |  | 9.52% | 8.12% | > 5 mM | 3.97 mM
O=C(O)c1cc(O)c(O)c(O)c1 [3,4,5-THB, 3,4,5-trihydroxybenzoic acid] | 4000 µg/mL (≈ 23.5 mM) | 3000 µg/mL (≈ 17.6 mM) | 6000 µg/mL (≈ 35.3 mM) | 3000 µg/mL (≈ 17.6 mM) | 3000 µg/mL (≈ 17.6 mM) | 73.85 µM | 0.44 mM | 0.36 mM | 2.42 ± 0.08 µM | 158.10 µM Fe^2+ and 158.10 ± 14.81 µM Fe^2+ |  |  |  |  |  |  | 79.50% |  | 

The next lines start with results.

MIC ([4]; read-out: MIC) | MIC ([5]; read-out: MIC) | MIC ([6]; read-out: MIC) | MIC ([7]; read-out: MIC) | MIC ([8]; read-out: MIC) | SMILES | CUPRAC assay: Trolox equivalent [1] | IC50 at 48 h [2, 10] | IC50 at 48 h [2, 11] | IC50 (DPPH assay) | FRAP [3] | MIC [4] | MIC [5] | MIC [6] | MIC [7] | MIC [8] | degree of Trolox oxidation [9] | Inhibition of ABTS•+ radicals (%I) (ABTS assay) | IC50 at 48 h [2, 12] | IC50 at 48 h [2, 13]
5000 µg/mL (≈ 32.4 mM) | 3000 µg/mL (≈ 19.5 mM) | 5000 µg/mL (≈ 32.4 mM) | 3000 µg/mL (≈ 19.5 mM) | 5000 µg/mL (≈ 32.4 mM) | O=C(O)c1cc(O)ccc1O [2,5-DHB, 2,5-dihydroxybenzoic acid] | 68.77 µM |  |  | 4.99 ± 0.79 µM | 236.00 µM Fe^2+ and 236.00 ± 6.31 µM Fe^2+ |  |  |  |  |  |  | 80.11% | > 5 mM | 4.39 mM
3000 µg/mL (≈ 19.5 mM) | 2000 µg/mL (≈ 13 mM) | 2000 µg/mL (≈ 13 mM) | 2000 µg/mL (≈ 13 mM) | 2000 µg/mL (≈ 13 mM) | O=C(O)c1cc(O)cc(O)c1 [3,5-DHB, 3,5-dihydroxybenzoic acid] |  |  |  | > 1000 µM | (-) * |  |  |  |  |  | 8.03% | 60.39% | > 5 mM | > 5 mM
